In PMC3025903 (Molecular Pain, 2010):

Assays:
Sprague-Dawley rats [1] = settings: rat, in vivo, iv
Sprague-Dawley rats [2] = settings: rat, in vivo, iv; SEM
[3] = biological target: T1, human N-type Ca^2+ channels stably expressed in HEK293 cells (C2D7 cells) (Homo sapiens, UniProt Q00975); experiment: cell-based
T1 construct: expressed in transfected cells
T1 sequence (Q00975 whole entry, looked up): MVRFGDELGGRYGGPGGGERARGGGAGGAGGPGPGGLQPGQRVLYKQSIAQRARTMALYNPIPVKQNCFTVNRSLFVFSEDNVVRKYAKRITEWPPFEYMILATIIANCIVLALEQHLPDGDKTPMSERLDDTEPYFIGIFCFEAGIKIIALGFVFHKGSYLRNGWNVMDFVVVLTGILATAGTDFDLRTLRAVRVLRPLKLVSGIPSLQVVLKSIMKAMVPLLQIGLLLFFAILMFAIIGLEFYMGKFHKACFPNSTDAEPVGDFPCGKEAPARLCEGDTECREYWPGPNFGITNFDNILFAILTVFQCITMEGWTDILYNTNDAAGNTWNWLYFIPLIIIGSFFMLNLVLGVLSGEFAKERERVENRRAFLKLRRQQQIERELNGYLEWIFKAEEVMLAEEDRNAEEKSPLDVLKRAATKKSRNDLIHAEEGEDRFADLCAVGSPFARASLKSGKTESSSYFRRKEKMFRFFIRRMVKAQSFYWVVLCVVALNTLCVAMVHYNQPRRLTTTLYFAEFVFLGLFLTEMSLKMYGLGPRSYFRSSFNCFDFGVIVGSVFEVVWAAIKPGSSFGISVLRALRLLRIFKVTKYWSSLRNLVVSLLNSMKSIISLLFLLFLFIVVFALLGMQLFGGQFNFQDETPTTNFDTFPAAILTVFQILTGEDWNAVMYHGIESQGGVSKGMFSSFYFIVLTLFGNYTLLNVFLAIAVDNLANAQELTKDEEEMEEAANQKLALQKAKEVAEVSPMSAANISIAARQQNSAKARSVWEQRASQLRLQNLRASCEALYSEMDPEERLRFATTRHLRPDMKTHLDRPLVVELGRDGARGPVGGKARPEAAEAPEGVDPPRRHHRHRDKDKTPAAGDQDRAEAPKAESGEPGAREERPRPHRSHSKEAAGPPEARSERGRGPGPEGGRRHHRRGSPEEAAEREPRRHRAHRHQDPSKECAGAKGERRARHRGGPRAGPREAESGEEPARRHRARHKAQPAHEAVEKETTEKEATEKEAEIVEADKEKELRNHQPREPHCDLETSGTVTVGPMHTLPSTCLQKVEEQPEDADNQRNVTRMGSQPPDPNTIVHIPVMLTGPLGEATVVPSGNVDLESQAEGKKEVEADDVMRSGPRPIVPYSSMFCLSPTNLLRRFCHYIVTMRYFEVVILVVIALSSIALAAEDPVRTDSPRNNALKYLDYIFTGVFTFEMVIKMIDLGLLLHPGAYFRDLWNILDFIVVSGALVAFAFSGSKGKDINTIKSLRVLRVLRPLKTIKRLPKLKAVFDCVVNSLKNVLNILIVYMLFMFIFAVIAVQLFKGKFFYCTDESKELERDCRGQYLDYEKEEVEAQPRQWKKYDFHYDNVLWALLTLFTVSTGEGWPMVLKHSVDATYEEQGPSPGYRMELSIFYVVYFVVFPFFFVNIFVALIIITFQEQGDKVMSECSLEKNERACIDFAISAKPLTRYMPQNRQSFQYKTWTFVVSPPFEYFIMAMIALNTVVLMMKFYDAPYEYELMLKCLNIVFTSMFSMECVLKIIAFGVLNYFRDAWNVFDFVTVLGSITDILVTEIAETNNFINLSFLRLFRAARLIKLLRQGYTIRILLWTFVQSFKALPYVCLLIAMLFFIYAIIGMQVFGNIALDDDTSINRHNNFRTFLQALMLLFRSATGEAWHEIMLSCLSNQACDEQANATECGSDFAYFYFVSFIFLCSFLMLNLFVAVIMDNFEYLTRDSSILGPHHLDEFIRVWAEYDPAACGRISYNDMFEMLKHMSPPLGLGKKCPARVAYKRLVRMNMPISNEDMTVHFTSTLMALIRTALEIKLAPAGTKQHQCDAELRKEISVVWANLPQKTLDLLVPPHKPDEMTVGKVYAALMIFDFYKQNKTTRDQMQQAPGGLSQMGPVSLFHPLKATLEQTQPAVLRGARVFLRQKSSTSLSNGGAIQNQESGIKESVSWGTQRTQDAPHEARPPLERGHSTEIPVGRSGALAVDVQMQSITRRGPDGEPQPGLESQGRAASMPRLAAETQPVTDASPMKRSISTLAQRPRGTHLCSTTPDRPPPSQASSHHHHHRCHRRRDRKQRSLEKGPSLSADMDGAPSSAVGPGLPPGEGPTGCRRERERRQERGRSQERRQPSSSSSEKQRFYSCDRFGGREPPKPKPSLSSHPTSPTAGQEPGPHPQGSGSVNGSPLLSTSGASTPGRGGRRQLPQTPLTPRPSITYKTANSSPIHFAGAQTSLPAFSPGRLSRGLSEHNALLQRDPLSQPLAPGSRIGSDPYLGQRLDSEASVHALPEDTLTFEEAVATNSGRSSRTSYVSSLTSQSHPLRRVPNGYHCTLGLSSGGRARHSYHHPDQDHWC

Structure (SMILES)	mean blood pressure 5 min after administration (Sprague-Dawley rats [1])	mean blood pressure after 5 h (Sprague-Dawley rats [1])	mean arterial pressure after 60 min (Sprague-Dawley rats [2])	mean arterial pressure within 3 min after injection (Sprague-Dawley rats [2])	IC50 [3]	block of N-type Ca2+ currents [3]	steady-state level to which the currents recovered after washout [3]
CC[C@H](C)[C@@H]1NC(=O)[C@H](CCCNC(=N)N)NC(=O)[C@H](CO)NC(=O)[C@@H]2CSSC[C@@H]3NC(=O)[C@H](CO)NC(=O)CNC(=O)[C@H]([C@@H](C)O)NC(=O)[C@H](CSSC[C@H](N)C(=O)N[C@@H](CCCCN)C(=O)NCC(=O)N[C@@H]([C@@H](C)O)C(=O)NCC(=O)N[C@@H](CCCCN)C(=O)N[C@@H](CO)C(=O)N2)NC(=O)[C@H](CSSC[C@@H](C(N)=O)NC(=O)[C@H](CCCCN)NC(=O)CNC(=O)[C@H](CO)NC(=O)[C@H](CCCNC(=N)N)NC3=O)NC(=O)[C@H](CC(N)=O)NC(=O)[C@H](Cc2ccc(O)cc2)NC(=O)[C@H](C)NC1=O [CTx-FVIA, ω-conotoxin FVIA]	78.9 ± 3.1 mmHg	nearly recovered	79.7 ± 4.1 mmHg	56.4 ± 1.0 mmHg	11.5 ± 1.4 nM	91.25 ± 1.8%	78.4 ± 5.8%
CSCC[C@@H]1NC(=O)[C@H](CC(C)C)NC(=O)[C@H](CCCNC(=N)N)NC(=O)[C@H](CO)NC(=O)[C@@H]2CSSC[C@@H]3NC(=O)[C@H](CO)NC(=O)CNC(=O)[C@H]([C@@H](C)O)NC(=O)[C@H](CSSC[C@H](N)C(=O)N[C@@H](CCCCN)C(=O)NCC(=O)N[C@@H](CCCCN)C(=O)NCC(=O)N[C@@H](C)C(=O)N[C@@H](CCCCN)C(=O)N2)NC(=O)[C@H](CSSC[C@@H](C(N)=O)NC(=O)[C@H](CCCCN)NC(=O)CNC(=O)[C@H](CO)NC(=O)[C@H](CCCNC(=N)N)NC3=O)NC(=O)[C@H](CC(=O)O)NC(=O)[C@H](Cc2ccc(O)cc2)NC1=O [CTx-MVIIA, ω-Conotoxin (CTx)-MVIIA, reference compound]	77.5 ± 1.7 mmHg	87.4 ± 2.6 mmHg	65.3 ± 1.9 mmHg	57.3 ± 3.1 mmHg		87.5 ± 1.9%	19.8 ± 3.8%
